Experimental data reported in US8952024B2, “Herbicidal pyrimidone derivatives” (E I du Pont de Nemours and Company, priority 2009, dated 2015).

What was measured:
Assay in all cases: Test B pre-/postemergence plant response
Type in all cases: in vivo
[1] = tested on: galium (catchweed bedstraw, Galium aparine); conditions: Preemergence; for Galium plant response rating: 125 g ai/ha
Method in brief: (§1)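 Greenhouse herbicide screen. Pre- and postemergence (1- to 4-leaf) spray of compound in solvent/surfactant mixture; loam–sand soil for pre, peat/vermiculite medium for post. Visual control rating 0–100 at 13 to 15 days after treatment.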

[2] = tested on: nightshade (eastern black nightshade, Solanum ptycanthum); conditions: Preemergence; for Nightshade plant response rating: 125 g ai/ha
Method in brief: as §1

[3] = tested on: sunflower (common oilseed sunflower, Helianthus annuus); conditions: Preemergence; for Sunflower plant response rating: 125 g ai/ha
Method in brief: as §1

[4] = tested on: goosegrass (Eleusine indica); conditions: Preemergence, 62 g ai/ha; scale 0 to 100 (0 no effect, 100 complete control)
[5] = 31 g ai/ha, scale 0 to 100 (0 no effect, 100 complete control)
[6] = 62 g ai/ha, scale 0 to 100 (0 no effect, 100 complete control)

| Structure (SMILES) | Plant response rating, Galium ([1]; 250 g ai/ha, 0 to 100 scale) | Plant response rating, Galium [1, 5] | Plant response rating, Galium [1, 6] | Galium plant response rating ([1]; 0 to 100 scale) | Plant response rating, Nightshade ([2]; 250 g ai/ha, 0 to 100 scale) | Plant response rating, Nightshade [2, 5] | Plant response rating, Nightshade [2, 6] | Nightshade plant response rating ([2]; 0 to 100 scale) | Plant response rating, Sunflower ([3]; 250 g ai/ha, 0 to 100 scale) | Plant response rating, Sunflower [3, 5] | Sunflower plant response rating ([3]; 0 to 100 scale) | Plant response rating, Goosegrass [4] | Plant response rating, Sunflower [3, 6] |
| --- | --- | --- | --- | --- | --- | --- | --- | --- | --- | --- | --- | --- | --- |
| O=C1CCCC(O)=C1C(=O)c1cnc(-c2ccccc2)n(-c2cccc(Br)c2)c1=O [Compound 38] | 85 | 0 | 40 | 85 | 100 | 90 | 95 | 98 | 75 | 0 | 25 | 100 |  |
| CCCCc1ncc(C(=O)C2=C(O)CCCC2=O)c(=O)n1-c1ccccc1 [Compound 42] | 50 | 0 | 0 | 10 | 100 | 100 | 100 | 100 | 75 | 0 | 55 | 95 |  |
| O=C1CCCC(O)=C1C(=O)c1cnc(-c2ccccc2)n(-c2ccccc2F)c1=O [Compound 26] | 98 | 0 | 50 | 90 | 100 | 85 | 100 | 100 | 95 | 60 | 90 | 80 | 90 |
| Cc1cccc(Cl)c1-n1c(-c2ccccc2)ncc(C(=O)C2=C(O)CCCC2=O)c1=O [Compound 46] | 70 | 0 | 0 | 0 | 98 | 95 | 95 | 98 | 60 | 0 | 0 | 95 |  |
| Cc1cc(C)cc(-n2c(-c3ccccc3)ncc(C(=O)C3=C(O)CCCC3=O)c2=O)c1 [Compound 33] | 90 | 0 | 10 | 50 | 100 | 80 | 100 | 100 | 90 | 65 | 75 | 85 | 75 |
